Laboratory results as given in the supplement of paper PMC10307832.

Columns and labels:
Experiment in all cases: relative viability (nuclei count vs DMSO), 5 days (fraction); higher = more cells survive
201T = system: 201T
How it was run: (§1)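 One day after seeding in 1536-well plates, lung cancer cell lines were dosed by pin tool. Dosing was either single-drug or a fixed anchor-drug dose plus five library-drug doses (not always all listed) in √10 steps. After 5 days, nuclei were stained in one fix-and-stain step and counted on 4× images, and relative viability is the nuclei count of treated wells over that of vehicle wells, given as the median of duplicate plates.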

A-427 = system: A-427
How it was run: as §1

ABC-1 = system: ABC-1
How it was run: as §1

BEN = system: BEN
How it was run: as §1

CAL-12T = system: CAL-12T
How it was run: as §1

H3255 = system: H3255
How it was run: as §1

HCC-15 = system: HCC-15
How it was run: as §1

LC-2-ad = system: LC-2-ad
How it was run: as §1

LCLC-97TM1 = system: LCLC-97TM1
How it was run: as §1

NCI-H1650 = system: NCI-H1650
How it was run: as §1

NCI-H1651 = system: NCI-H1651
How it was run: as §1

NCI-H1792 = system: NCI-H1792
How it was run: as §1

NCI-H1915 = system: NCI-H1915
How it was run: as §1

NCI-H2023 = system: NCI-H2023
How it was run: as §1

NCI-H2087 = system: NCI-H2087
How it was run: as §1

NCI-H441 = system: NCI-H441
How it was run: as §1

NCI-H460 = system: NCI-H460
How it was run: as §1

NCI-H520 = system: NCI-H520
How it was run: as §1

NCI-H596 = system: NCI-H596
How it was run: as §1

NCI-H650 = system: NCI-H650
How it was run: as §1

NCI-H661 = system: NCI-H661
How it was run: as §1

NCI-H727 = system: NCI-H727
How it was run: as §1

PC-3 [JPC-3] = system: PC-3 [JPC-3]
How it was run: as §1

Clc1ccc(Nc2nnc(Cc3ccncc3)c3ccccc23)cc1 [Vatalanib] + CC(C)C[C@H](NC(=O)[C@H](Cc1ccccc1)NC(=O)c1cnccn1)B(O)O [Bortezomib] (partner 0.002 µM) was tested, and the relative viability (201T; first compound 0.04 µM) was 1.08, the relative viability (201T; first compound 0.1265 µM) was 1.11 and the relative viability (201T; first compound 0.4 µM) was 1.11. The relative viability (201T; first compound 1.265 µM) was 1.08, the relative viability (201T; first compound 4 µM) was 1.13 and the relative viability (A-427; first compound 0.04 µM) was 0.965. It also gave a relative viability (A-427; first compound 0.1265 µM) of 0.926, a relative viability (A-427; first compound 0.4 µM) of 0.96 and a relative viability (A-427; first compound 1.265 µM) of 0.941. For the same molecule, the relative viability (A-427; first compound 4 µM) was 0.997, the relative viability (ABC-1; first compound 0.04 µM) was 0.334 and the relative viability (ABC-1; first compound 0.1265 µM) was 0.243. The relative viability (ABC-1; first compound 0.4 µM) was 0.348, the relative viability (ABC-1; first compound 1.265 µM) was 0.357 and the relative viability (ABC-1; first compound 4 µM) was 0.351. It also gave a relative viability (BEN; first compound 0.04 µM) of 0.851, a relative viability (BEN; first compound 0.1265 µM) of 0.682 and a relative viability (BEN; first compound 0.4 µM) of 0.906. It also gave a relative viability (BEN; first compound 1.265 µM) of 0.665, a relative viability (BEN; first compound 4 µM) of 0.806 and a relative viability (CAL-12T; first compound 0.04 µM) of 0.933. The relative viability (CAL-12T; first compound 0.1265 µM) was 0.774, the relative viability (CAL-12T; first compound 1.265 µM) was 0.988 and the relative viability (CAL-12T; first compound 4 µM) was 1.05. The relative viability (H3255; first compound 0.04 µM) was 0.627, the relative viability (H3255; first compound 0.1265 µM) was 0.764 and the relative viability (H3255; first compound 0.4 µM) was 0.494. It also gave a relative viability (H3255; first compound 1.265 µM) of 0.47, a relative viability (H3255; first compound 4 µM) of 0.713 and a relative viability (HCC-15; first compound 0.04 µM) of 1.15. It also gave a relative viability (HCC-15; first compound 0.1265 µM) of 1.03, a relative viability (HCC-15; first compound 0.4 µM) of 1.03 and a relative viability (HCC-15; first compound 1.265 µM) of 0.978. It also gave a relative viability (HCC-15; first compound 4 µM) of 1.04, a relative viability (LC-2-ad; first compound 0.04 µM) of 0.987 and a relative viability (LC-2-ad; first compound 0.1265 µM) of 1.01. It also gave a relative viability (LC-2-ad; first compound 0.4 µM) of 1.17, a relative viability (LC-2-ad; first compound 1.265 µM) of 1 and a relative viability (LC-2-ad; first compound 4 µM) of 0.952. The relative viability (LCLC-97TM1; first compound 0.04 µM) was 0.529, the relative viability (LCLC-97TM1; first compound 0.1265 µM) was 0.523 and the relative viability (LCLC-97TM1; first compound 0.4 µM) was 0.528. The relative viability (LCLC-97TM1; first compound 1.265 µM) was 0.31, the relative viability (LCLC-97TM1; first compound 4 µM) was 0.769 and the relative viability (NCI-H1650; first compound 0.04 µM) was 0.196. For the same molecule, the relative viability (NCI-H1650; first compound 0.1265 µM) was 0.217, the relative viability (NCI-H1650; first compound 0.4 µM) was 0.206 and the relative viability (NCI-H1650; first compound 1.265 µM) was 0.174. The relative viability (NCI-H1650; first compound 4 µM) was 0.195, the relative viability (NCI-H1651; first compound 0.04 µM) was 0.906 and the relative viability (NCI-H1651; first compound 0.1265 µM) was 0.917. The relative viability (NCI-H1651; first compound 0.4 µM) was 0.959, the relative viability (NCI-H1651; first compound 1.265 µM) was 0.941 and the relative viability (NCI-H1651; first compound 4 µM) was 0.969. The relative viability (NCI-H1792; first compound 0.04 µM) was 0.946, the relative viability (NCI-H1792; first compound 0.1265 µM) was 0.9 and the relative viability (NCI-H1792; first compound 0.4 µM) was 0.915. The relative viability (NCI-H1792; first compound 1.265 µM) was 0.921, the relative viability (NCI-H1792; first compound 4 µM) was 0.972 and the relative viability (NCI-H1915; first compound 0.04 µM) was 0.949. The relative viability (NCI-H1915; first compound 0.1265 µM) was 0.923, the relative viability (NCI-H1915; first compound 0.4 µM) was 0.993 and the relative viability (NCI-H1915; first compound 1.265 µM) was 0.936. It also gave a relative viability (NCI-H1915; first compound 4 µM) of 0.987, a relative viability (NCI-H2023; first compound 0.04 µM) of 1.02 and a relative viability (NCI-H2023; first compound 0.1265 µM) of 0.837. For the same molecule, the relative viability (NCI-H2023; first compound 0.4 µM) was 1.02, the relative viability (NCI-H2023; first compound 1.265 µM) was 0.946 and the relative viability (NCI-H2023; first compound 4 µM) was 0.695. The relative viability (NCI-H2087; first compound 0.04 µM) was 1.05, the relative viability (NCI-H2087; first compound 0.1265 µM) was 0.744 and the relative viability (NCI-H2087; first compound 0.4 µM) was 0.92. It also gave a relative viability (NCI-H2087; first compound 1.265 µM) of 0.917, a relative viability (NCI-H2087; first compound 4 µM) of 0.753 and a relative viability (NCI-H441; first compound 0.04 µM) of 0.421. It also gave a relative viability (NCI-H441; first compound 0.1265 µM) of 0.444, a relative viability (NCI-H441; first compound 0.4 µM) of 0.52 and a relative viability (NCI-H441; first compound 1.265 µM) of 0.448. For the same molecule, the relative viability (NCI-H441; first compound 4 µM) was 0.448, the relative viability (NCI-H460; first compound 0.04 µM) was 1.07 and the relative viability (NCI-H460; first compound 0.1265 µM) was 0.919. For the same molecule, the relative viability (NCI-H460; first compound 0.4 µM) was 1.03, the relative viability (NCI-H460; first compound 1.265 µM) was 1.03 and the relative viability (NCI-H460; first compound 4 µM) was 1.02. The relative viability (NCI-H520; first compound 0.04 µM) was 0.841, the relative viability (NCI-H520; first compound 0.1265 µM) was 0.573 and the relative viability (NCI-H520; first compound 0.4 µM) was 0.677. It also gave a relative viability (NCI-H520; first compound 1.265 µM) of 0.547, a relative viability (NCI-H520; first compound 4 µM) of 0.702 and a relative viability (NCI-H596; first compound 0.04 µM) of 1.2. For the same molecule, the relative viability (NCI-H596; first compound 0.1265 µM) was 1, the relative viability (NCI-H596; first compound 0.4 µM) was 1.01 and the relative viability (NCI-H596; first compound 1.265 µM) was 1.11. It also gave a relative viability (NCI-H596; first compound 4 µM) of 1.01, a relative viability (NCI-H650; first compound 0.04 µM) of 0.891 and a relative viability (NCI-H650; first compound 0.1265 µM) of 0.736. For the same molecule, the relative viability (NCI-H650; first compound 1.265 µM) was 0.6, the relative viability (NCI-H650; first compound 4 µM) was 0.812 and the relative viability (NCI-H661; first compound 0.04 µM) was 0.801. The relative viability (NCI-H661; first compound 0.1265 µM) was 0.71, the relative viability (NCI-H661; first compound 0.4 µM) was 0.882 and the relative viability (NCI-H661; first compound 1.265 µM) was 0.764. For the same molecule, the relative viability (NCI-H661; first compound 4 µM) was 0.816, the relative viability (NCI-H727; first compound 0.04 µM) was 0.908 and the relative viability (NCI-H727; first compound 0.1265 µM) was 0.776. For the same molecule, the relative viability (NCI-H727; first compound 0.4 µM) was 0.827, the relative viability (NCI-H727; first compound 1.265 µM) was 0.854 and the relative viability (NCI-H727; first compound 4 µM) was 0.706. The relative viability (PC-3 [JPC-3]; first compound 0.04 µM) was 0.785, the relative viability (PC-3 [JPC-3]; first compound 0.1265 µM) was 0.828 and the relative viability (PC-3 [JPC-3]; first compound 0.4 µM) was 0.82. It also gave a relative viability (PC-3 [JPC-3]; first compound 1.265 µM) of 0.856 and a relative viability (PC-3 [JPC-3]; first compound 4 µM) of 0.721.
